“Also recorded” adds a separate entry of the source. One block for each molecule: values may come before it.
Key:
[1] = test system: LDLR in HepG2 cells; experiment: LDLR levels in HepG2 cells by Western blotting and densitometry; assay type: cell-based, human; details: for cellular LDLR, plateau compared to control: dose-dependent increase
Experimental: In the heparin mimetic class of modified polysaccharides compounds dextran sulfate (FIG. 9 A-B) and pentosan (FIG. 9 D-E) were tested in a HepG2 based in vitro cell assay. After overnight incubation LDLR levels were evaluated by Western blotting showing a concentration dependent increase of LDLR upon treatment with dextran sulfate (0-200 μg/ml) with up to 3-fold up regulation of LDLR.
Control cells were incubated without additives (negative control) or 500 μg/ml heparin (positive control). LDLR levels were calculated with respect to the level found in lysate of HepG2 cells incubated without additives.
HepG2 cells were incubated with 0-200 μg/ml of heterogeneously sulfated hexamer or 18-mer oligosaccharides containing on average 1,3 sulfates per disaccharide. After over night incubation cells were harvested and the cellular level of LDLR was analyzed by Western blotting (FIG. 17 A) and quantified by densitometry (FIG. 17 B).

[2] = molecular target: PCSK9; experiment: Microscale Thermophoresis (MST) binding to PCSK9; design: species or system human; details: 100 nM labelled PCSK9, PBS+0.05% Tween-20; for Kd: read-out: KD (affinity for PCSK9, MST)
Experimental: Equilibrium binding affinities between PCSK9 and ligands (suramin, dextran sulfate 5000, dextran 5000, pentosan sulfate and S-dC-36) were assessed using Microscale Thermophoresis (MST) (Jerabek-Willemsen et al., 2011). PCSK9 was labeled using the MO-L003 Monolith Blue-NHS labeling kit (NanoTemper Technologies) and a labeling efficiency of 1:1 molar ratio of protein to dye was achieved. PCSK9 was applied at a final concentration of 100 nM. The unlabeled binding partner was titrated in 1:1 dilutions (in PBS+0.05% Tween-20) where the highest concentrations were 15.4 mM for suramin, 2.3 mM for dextran sulfate 5000, 2.3 mM for dextran 5000, 16.3 mM for pentosan sulfate and 250 μM for S-dC-36. MST measurements were performed in standard-treated capillaries (NanoTemper Technologies) on a Monolith NT.115 instrument (NanoTemper Technologies) using 20% LED and 80% MST power. Laser on and off times were 5 s and 35 s, respectively. Negative controls were performed using 100 nM of labelled PCSK9 in MST buffer in all 16 capillaries under the same conditions as mentioned above. Binding curves were obtained from the temperature-jump phase at 80% MST power for suramin, dextran sulfate 5000 and S-dC-36; and from the thermophoresis+temperature-jump phase at 80% MST power for pentosan sulfate. For each binding partner, the sigmoidal dose-response curves were fitted with GraphPad Prism 6 to yield an average KD value.

[3] = oral dose; cited from earlier work
[4] = test system: PCSK9; experiment: Heparin-sepharose binding assay (free PCSK9 by ELISA); design: species or system human; details: 500-250 μg/ml, PCSK9 1 μg/ml, over night 4° C.
Experimental: Compound (X) inhibition of PCSK9 binding to Heparin/Heparan sulfate was tested in a Heparin-sepharose binding assay. Heparin-sepharose beads (2 μl) were incubated with PCSK9 (1 μg/ml) with increasing concentrations of compound (X) (0-500 μg/ml) in a total volume of 150 μl 10 mM NaH2PO4. After over night rotation at 4° C., beads were pelleted and the concentration of non-precipitated PCSK9 (free PCSK9) in supernatant was evaluated by ELISA. The concentration of free PCSK9 in each sample was normalised to the PCSK9 level in a sample without Heparin-sepharose beads (input control). As positive control was included a sample with soluble heparin (5 mg/ml) (FIG. 16 A).
Sucrose octasulfate (FIG. 21A) inhibition of PCSK9 binding to Heparin/Heparan sulfate was tested in a Heparin-sepharose binding assay. Heparin-sepharose beads (2 μl) were incubated with PCSK9 (1 μg/ml) and increasing concentrations of sucrose octasulfate (0-500 μg/ml) in a total volume of 150 μl 10 mM NaH2PO4. After over night rotation at 4° C., beads were pelleted and the concentration of non-precipitated PCSK9 (free PCSK9) in supernatant was evaluated by ELISA). Percent free PCSK9 was calculated with respect to the PCSK9 concentration in a sample without Heparin-sepharose beads (input control) (FIG. 21B).

[5] = molecular target: PCSK9; experiment: BIACORE analysis of PCSK9 binding to heparin-albumin or albumin sensor chips; design: species or system human
Experimental: BIACORE analysis using sensor chips coupled with either albumin (Sigma A4503) or heparin-albumin (Sigma H0403) were used to evaluate the interaction between PCSK9 and heparin. […] An interference assay using BIACORE analysis was implemented to assess the binding between compound (X) and PCSK9. Solutions of 100 nM PCSK9 was incubated with increasing concentrations of compound (X) (0 nM, 10 nM, 100 nM, 1 μM and 10 μM), the solutions were then infused over the sensor chip coupled with heparin-albumin.

[6] = test system: LDLR in HepG2 cells; experiment: LDLR levels in HepG2 cells by Western blotting and densitometry; assay type: cell-based, human
[7] = test system: liver LDLR; experiment: Liver LDLR levels in mice after intravenous PCSK9 injection (Western blot); assay type: in vivo
Experimental: To test the effect of enzymatic removal of heparan sulfate GAGs on PCSK9 activity in vivo 10-12 week-old male BALB6/cJRj mice were infused with heparinase I (30 U) administered through a tail vein catheter 5 min prior injection of PCSK9 (10 μg). In control mice the heparinase injection and/or the PCSK9 injection were replaced with an injection of 0.9% saline. During heparinase infusion, mice were lightly anaesthetized with isoflurane continuously administered through a mask.
Mice (BALB6/cJRj) were subjected to a single intravenous administration (tail vein) of 10 μg human recombinant PCSK9 alone or in combination with heparin (50 U). One hour post injection mice were sacrificed and liver tissues were collected.
Mice (BALB6/cJRj) were subjected to a single intravenous (tail vein) administration of 3.2 μg compound (X) 60 minutes prior injection with PCSK9 (10 μg). PCSK9 induced degradation of liver LDLR was assessed 60 min post PCSK9 injection by Western blotting and quantified by densitometry (FIG. 16 C). Control mice were injected with NaCl or control inhibitor Evolocumab (200 μg), commercially available PCSK9 inhibitory monoclonal antibody (Amgen). LDLR levels were calculated with respect to LDLR level in mice injected with NaCl alone.

[8] = test system: HepG2 cells; experiment: Uptake of Bodipy-labeled LDL particles in HepG2 cells; assay type: cell-based, human; details: suramin 200 μg/ml overnight, then 4 hours 10 ng/ml Bodipy-LDL
Experimental: FIG. 12: Bar graphs showing the relative fluorescence signal in HepG2 cells after overnight incubation with suramin (200 μg/ml) following 4 hours incubation with 10 ng/ml LDL particles labeled with fluorescence dye Bodipy. Inhibition of PCSK9 with suramin increases the uptake of LDL two-fold.

[9] = test system: cell surface PCSK9; experiment: Surface PCSK9 immunostaining of non-permeabilized HepG2 cells stably expressing PCSK9; assay type: cell-based, human; details: heparinase I 1 h at 37° C.
Experimental: We speculated that HSPG might be involved in the capture of PCSK9. Thus, we treated human hepatocyte-derived HepG2 cells stably expressing PCSK9 with heparinase I. The enzyme heparinase I cleaves heparan sulfate GAG chains at the 1,4 O-linkage between uronic acid and N-acetyl-D-glucosamine, thereby removing cell surface heparan sulfate chains.
HepG2 cells stably transfected with PCSK9 were seeded at 50.000 cells per coverslip and incubated overnight before addition of heparinase I (Sigma Aldrich/H2519) in PBS (0,0002 UN/ml) or PBS alone. Cells were incubated for 1 h. at 37° C., before fixation in 4% paraformaldehyd and immunostaining of non-permeabilized cells with primary and secondary antibodies. Nuclei were visualized with Hoechst dye (Sigma Aldrich). Images were acquired on a Zeiss LSM780.

Kd [2]: 381 µM
Molecule: pentosan sulfate
increase in LDLR ([1]; 50-200 μg/ml, 24 hour / overnight): 4 fold | cellular LDLR, plateau compared to control [1]: around 400% | absorption from the digestive tract, median time after ingestion [3]: 2 h

Kd [2]: 180 µM
Molecule: dextran sulfate
up regulation of LDLR ([1]; 0-200 μg/ml, overnight): up to 3 fold | cellular level of LDLR ([1]; 200 μg/ml, 24 hour): potently increase the cellular level of LDLR | cellular LDLR, plateau compared to control [1]: around 400%

Molecule: O=S(=O)(O)OC[C@H]1O[C@@](COS(=O)(=O)O)(O[C@H]2O[C@H](COS(=O)(=O)O)[C@@H](OS(=O)(=O)O)[C@H](OS(=O)(=O)O)[C@H]2OS(=O)(=O)O)[C@@H](OS(=O)(=O)O)[C@@H]1OS(=O)(=O)O [Sucrose octasulfate]
inhibition of PCSK9 precipitation with Heparin-sepharose [4]: inhibited PCSK9 precipitation with Heparin-sepharose as well as 5 mg/ml soluble heparin

Kd ([5]; Example 20 text, read-out: affinity constant of PCSK9 binding): 0.0007 µM
Molecule: heparin-albumin: heparin-albumin (Sigma H0403) coupled to sensor chip

PCSK9 binding to control sensor chip ([5]; sensor chip coupled with albumin): no binding was observed
Molecule: albumin: albumin (Sigma A4503) control sensor chip

KD (affinity for PCSK9, MST) [2]: no affinity for PCSK9
Molecule: dextran

Molecule: phosphorothioate oligodeoxycytidine [S-dC-36]
cellular LDLR levels / PCSK9 inhibitory effect ([6]; 0-5.0 μM, 24 hour): potent inhibitory effects; also recorded: concentration dependent increase in cellular receptor levels

Molecule: Cc1ccc(C(=O)Nc2ccc(S(=O)(=O)O)c3cc(S(=O)(=O)O)cc(S(=O)(=O)O)c23)cc1NC(=O)c1cccc(NC(=O)Nc2cccc(C(=O)Nc3cc(C(=O)Nc4ccc(S(=O)(=O)O)c5cc(S(=O)(=O)O)cc(S(=O)(=O)O)c45)ccc3C)c2)c1 [suramin]
LDLR level compared with cells incubated with statins ([6]; 100 μM, 24 and 48 hours, vs mevastatin and simvastatin): higher level of LDLR | increase in LDLR ([6]; suramin 0-200 μg/ml, 24 hour): up to fifteen-fold increase in LDLR | Kd [2]: 190 µM | level of liver LDLR compared to mice injected with PCSK9 alone ([7]; co-injected with PCSK9 (10 μg), heparin 50 U or suramin 300 μg, 1 hour): significantly higher level of LDLR | uptake of fluorescently labelled LDL particles [8]: increased cellular uptake of fluorescently labelled LDL particles; also recorded: two-fold

B1: Evolocumab: commercially available PCSK9 inhibitory monoclonal antibody (Amgen) (antibody, chains of the INN, looked up, V domains shown)
VH: EVQLVQSGAEVKKPGASVKVSCKASGYTLTSYGISWVRQAPGQGLEWMGWVSFYNGNTNYAQKLQGRGTMTTDPSTSTAYMELRSLRSDDTAVYYCARGYGMDVWGQGTTVTVSS
VL: ESALTQPASVSGSPGQSITISCTGTSSDVGGYNSVSWYQQHPGKAPKLMIYEVSNRPSGVSNRFSGSKSGNTASLTISGLQAEDEADYYCNSYTSTSMVFGGGTKLTVL
decrease of liver LDLR level after PCSK9 injection ([7]; inhibitor i.v. 60 min prior PCSK9 (10 μg), compound (X) 0.13 mg/kg, Evolocumab 8 mg/kg, PCSK9 without inhibitor: 50% decrease): no decrease was observed

B2: heparinase I: enzyme that cleaves heparan sulfate GAG chains (Sigma Aldrich/H2519) (protein, UniProt Q05819 22-384, looked up)
Heparin lyase I: QQKKSGNIPYRVNVQADSAKQKAIIDNKWVAVGINKPYALQYDDKLRFNGKPSYRFELKAEDNSLEGYAAGETKGRTELSYSYATTNDFKKFPPSVYQNAQKLKTVYHYGKGICEQGSSRSYTFSVYIPSSFPDNATTIFAQWHGAPSRTLVATPEGEIKTLSIEEFLALYDRMIFKKNIAHDKVEKKDKDGKITYVAGKPNGWKVEQGGYPTLAFGFSKGYFYIKANSDRQWLTDKADRNNANPENSEVMKPYSSEYKTSTIAYKMPFAQFPKDCWITFDVAIDWTKYGKEANTILKPGKLDVMMTYTKNKKPQKAHIVNQQEILIGRNDDDGYYFKFGIYRVGNSTVPVTYNLSGYSETAR
intensity of surface PCSK9 staining [9]: marked decrease in the intensity of surface PCSK9 staining | PCSK9 induced degradation of liver LDLR ([7]; heparinase I (30 U) infused 5 min prior PCSK9 (10 μg), 1 hour): completely protected; also recorded: completely inhibits

— patent US11173177B2, “Compounds for treatment of lipoprotein metabolism disorders” (Aarhus Universitet, priority 2016, dated 2021)
